Experimental data taken from patent US20170190705A1, “Compositions and Methods for Inhibiting BMP” (THE BRIGHAM AND WOMAN'S HOSPITAL, INC., priority 2014, published 2017).

Columns and labels:
Assay type in all cases: biochemical
SGK1 = molecular target: T1, SGK1 (Homo sapiens, UniProt O00141); assay: Kinome profiling SGK1; conditions: read-out: Inhibitory activity SGK1; for inhibition at 0.1 µM: 100 nM
T1 sequence (O00141 1-431): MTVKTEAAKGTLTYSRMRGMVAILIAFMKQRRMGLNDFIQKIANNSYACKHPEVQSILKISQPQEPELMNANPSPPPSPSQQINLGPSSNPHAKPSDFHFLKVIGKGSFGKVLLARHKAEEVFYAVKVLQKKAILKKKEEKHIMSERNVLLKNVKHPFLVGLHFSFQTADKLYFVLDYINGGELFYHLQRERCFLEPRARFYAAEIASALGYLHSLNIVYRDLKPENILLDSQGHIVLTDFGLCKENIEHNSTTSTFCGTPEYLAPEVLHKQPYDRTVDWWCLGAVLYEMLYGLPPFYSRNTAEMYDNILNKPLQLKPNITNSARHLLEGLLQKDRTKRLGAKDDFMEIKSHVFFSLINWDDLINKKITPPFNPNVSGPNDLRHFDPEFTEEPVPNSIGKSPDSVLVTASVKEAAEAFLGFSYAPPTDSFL
Protocol: (§1) . The kinome-wide selectivity was determined following the methods previously reported by Mohedas et al., ACS Chem Biol 2013, 8, 1291-1302 and Sanvitale et al., PLoS One 2013, 8, e62721.

PKC-γ = PKC-γ (Homo sapiens, UniProt P05129); assay: Kinome profiling PKC-γ; conditions: read-out: Inhibitory activity PKC-γ; for inhibition at 0.1 µM: 100 nM
Protocol: as §1

PAR-1Bα = PAR-1Bα (Homo sapiens, UniProt Q7KZI7); assay: Kinome profiling PAR-1Bα; conditions: read-out: Inhibitory activity PAR-1Bα; for inhibition at 0.1 µM: 100 nM
PAR-1Bα, sequence (Q7KZI7 1-725 isoform Q7KZI7-4): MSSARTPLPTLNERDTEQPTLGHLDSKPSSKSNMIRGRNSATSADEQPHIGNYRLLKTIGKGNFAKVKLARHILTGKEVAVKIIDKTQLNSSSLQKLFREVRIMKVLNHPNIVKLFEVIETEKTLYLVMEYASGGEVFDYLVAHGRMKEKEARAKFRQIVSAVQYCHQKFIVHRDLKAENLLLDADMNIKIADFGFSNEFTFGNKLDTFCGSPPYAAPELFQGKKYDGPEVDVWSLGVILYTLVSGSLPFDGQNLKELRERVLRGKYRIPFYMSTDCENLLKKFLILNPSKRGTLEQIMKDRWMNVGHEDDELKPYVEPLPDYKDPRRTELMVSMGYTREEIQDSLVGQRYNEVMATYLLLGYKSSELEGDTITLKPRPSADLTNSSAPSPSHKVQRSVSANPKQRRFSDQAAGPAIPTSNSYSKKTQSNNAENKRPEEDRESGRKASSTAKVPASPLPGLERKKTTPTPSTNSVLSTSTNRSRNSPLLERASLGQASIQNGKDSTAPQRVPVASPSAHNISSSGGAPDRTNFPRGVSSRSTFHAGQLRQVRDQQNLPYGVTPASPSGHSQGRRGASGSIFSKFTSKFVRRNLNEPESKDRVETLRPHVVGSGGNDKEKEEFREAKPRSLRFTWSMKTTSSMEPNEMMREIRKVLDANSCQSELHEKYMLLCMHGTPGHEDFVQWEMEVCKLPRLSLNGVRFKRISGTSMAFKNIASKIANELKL
Protocol: as §1

ALK = ALK (Homo sapiens, UniProt Q9UM73); assay: Kinome profiling ALK; conditions: read-out: Inhibitory activity ALK; for inhibition at 0.1 µM: 100 nM
ALK, sequence (Q9UM73 19-1620): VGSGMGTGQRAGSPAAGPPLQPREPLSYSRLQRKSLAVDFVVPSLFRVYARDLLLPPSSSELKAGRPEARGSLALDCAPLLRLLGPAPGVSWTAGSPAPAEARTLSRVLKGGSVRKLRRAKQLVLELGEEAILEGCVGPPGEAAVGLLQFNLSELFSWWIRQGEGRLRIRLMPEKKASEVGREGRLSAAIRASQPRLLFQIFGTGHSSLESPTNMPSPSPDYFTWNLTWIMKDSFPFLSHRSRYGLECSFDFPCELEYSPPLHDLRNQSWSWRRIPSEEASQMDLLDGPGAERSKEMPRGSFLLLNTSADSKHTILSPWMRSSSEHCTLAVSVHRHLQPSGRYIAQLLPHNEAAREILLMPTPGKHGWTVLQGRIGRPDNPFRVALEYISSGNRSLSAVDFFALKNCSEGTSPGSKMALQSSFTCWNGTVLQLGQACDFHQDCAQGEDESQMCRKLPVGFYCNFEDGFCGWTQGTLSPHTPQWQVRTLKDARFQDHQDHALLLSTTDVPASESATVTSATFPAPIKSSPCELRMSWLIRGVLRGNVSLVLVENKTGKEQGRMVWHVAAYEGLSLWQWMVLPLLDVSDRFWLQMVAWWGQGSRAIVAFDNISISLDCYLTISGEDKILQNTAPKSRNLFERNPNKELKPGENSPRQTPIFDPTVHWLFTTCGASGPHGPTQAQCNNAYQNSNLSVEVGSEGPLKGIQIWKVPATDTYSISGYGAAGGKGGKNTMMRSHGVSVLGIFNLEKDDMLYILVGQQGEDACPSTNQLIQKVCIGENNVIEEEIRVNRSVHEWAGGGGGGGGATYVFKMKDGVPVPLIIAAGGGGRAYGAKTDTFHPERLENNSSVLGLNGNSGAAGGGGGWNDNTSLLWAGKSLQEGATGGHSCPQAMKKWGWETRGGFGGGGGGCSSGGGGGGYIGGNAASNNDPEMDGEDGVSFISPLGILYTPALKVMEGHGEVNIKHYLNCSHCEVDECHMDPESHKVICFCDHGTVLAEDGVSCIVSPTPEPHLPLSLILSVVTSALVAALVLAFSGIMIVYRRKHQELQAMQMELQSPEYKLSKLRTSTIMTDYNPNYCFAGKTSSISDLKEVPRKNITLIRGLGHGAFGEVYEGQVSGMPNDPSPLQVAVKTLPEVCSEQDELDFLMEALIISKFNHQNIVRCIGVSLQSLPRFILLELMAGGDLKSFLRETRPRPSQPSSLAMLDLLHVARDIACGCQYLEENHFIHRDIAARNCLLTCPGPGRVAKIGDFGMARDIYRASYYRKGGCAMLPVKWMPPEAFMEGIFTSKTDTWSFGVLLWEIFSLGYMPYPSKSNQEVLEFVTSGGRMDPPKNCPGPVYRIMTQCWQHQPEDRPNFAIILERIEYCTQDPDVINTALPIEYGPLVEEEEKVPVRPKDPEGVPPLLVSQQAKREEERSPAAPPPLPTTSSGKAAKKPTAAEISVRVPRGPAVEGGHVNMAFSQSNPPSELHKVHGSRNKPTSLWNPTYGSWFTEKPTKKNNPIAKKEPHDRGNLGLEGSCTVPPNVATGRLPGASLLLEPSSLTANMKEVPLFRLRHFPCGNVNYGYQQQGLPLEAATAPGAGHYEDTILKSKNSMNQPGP
Protocol: as §1

ERBB4 = ERBB4 (Homo sapiens, UniProt Q15303); assay: Kinome profiling ERBB4; conditions: read-out: Inhibitory activity ERBB4; for inhibition at 0.1 µM: 100 nM
Protocol: as §1

P38γ = molecular target: T2, P38γ (Homo sapiens, UniProt P53778); assay: Kinome profiling P38γ; conditions: read-out: Inhibitory activity P38γ; for inhibition at 0.1 µM: 100 nM
T2 sequence (P53778 1-367): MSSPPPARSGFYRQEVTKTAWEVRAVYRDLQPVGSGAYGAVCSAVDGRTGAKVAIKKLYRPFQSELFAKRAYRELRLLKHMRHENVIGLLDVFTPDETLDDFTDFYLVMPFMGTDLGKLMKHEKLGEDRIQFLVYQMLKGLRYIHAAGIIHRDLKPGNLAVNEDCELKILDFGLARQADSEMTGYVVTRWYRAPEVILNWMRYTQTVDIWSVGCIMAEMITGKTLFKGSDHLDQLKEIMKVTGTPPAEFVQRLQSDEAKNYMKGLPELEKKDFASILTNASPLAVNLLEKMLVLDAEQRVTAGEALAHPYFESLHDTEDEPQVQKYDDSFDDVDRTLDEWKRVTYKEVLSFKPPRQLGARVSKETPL
Protocol: as §1

RON = RON (Homo sapiens, UniProt Q04912); assay: Kinome profiling RON; conditions: read-out: Inhibitory activity RON; for inhibition at 0.1 µM: 100 nM
RON, sequence (Q04912 25-1400): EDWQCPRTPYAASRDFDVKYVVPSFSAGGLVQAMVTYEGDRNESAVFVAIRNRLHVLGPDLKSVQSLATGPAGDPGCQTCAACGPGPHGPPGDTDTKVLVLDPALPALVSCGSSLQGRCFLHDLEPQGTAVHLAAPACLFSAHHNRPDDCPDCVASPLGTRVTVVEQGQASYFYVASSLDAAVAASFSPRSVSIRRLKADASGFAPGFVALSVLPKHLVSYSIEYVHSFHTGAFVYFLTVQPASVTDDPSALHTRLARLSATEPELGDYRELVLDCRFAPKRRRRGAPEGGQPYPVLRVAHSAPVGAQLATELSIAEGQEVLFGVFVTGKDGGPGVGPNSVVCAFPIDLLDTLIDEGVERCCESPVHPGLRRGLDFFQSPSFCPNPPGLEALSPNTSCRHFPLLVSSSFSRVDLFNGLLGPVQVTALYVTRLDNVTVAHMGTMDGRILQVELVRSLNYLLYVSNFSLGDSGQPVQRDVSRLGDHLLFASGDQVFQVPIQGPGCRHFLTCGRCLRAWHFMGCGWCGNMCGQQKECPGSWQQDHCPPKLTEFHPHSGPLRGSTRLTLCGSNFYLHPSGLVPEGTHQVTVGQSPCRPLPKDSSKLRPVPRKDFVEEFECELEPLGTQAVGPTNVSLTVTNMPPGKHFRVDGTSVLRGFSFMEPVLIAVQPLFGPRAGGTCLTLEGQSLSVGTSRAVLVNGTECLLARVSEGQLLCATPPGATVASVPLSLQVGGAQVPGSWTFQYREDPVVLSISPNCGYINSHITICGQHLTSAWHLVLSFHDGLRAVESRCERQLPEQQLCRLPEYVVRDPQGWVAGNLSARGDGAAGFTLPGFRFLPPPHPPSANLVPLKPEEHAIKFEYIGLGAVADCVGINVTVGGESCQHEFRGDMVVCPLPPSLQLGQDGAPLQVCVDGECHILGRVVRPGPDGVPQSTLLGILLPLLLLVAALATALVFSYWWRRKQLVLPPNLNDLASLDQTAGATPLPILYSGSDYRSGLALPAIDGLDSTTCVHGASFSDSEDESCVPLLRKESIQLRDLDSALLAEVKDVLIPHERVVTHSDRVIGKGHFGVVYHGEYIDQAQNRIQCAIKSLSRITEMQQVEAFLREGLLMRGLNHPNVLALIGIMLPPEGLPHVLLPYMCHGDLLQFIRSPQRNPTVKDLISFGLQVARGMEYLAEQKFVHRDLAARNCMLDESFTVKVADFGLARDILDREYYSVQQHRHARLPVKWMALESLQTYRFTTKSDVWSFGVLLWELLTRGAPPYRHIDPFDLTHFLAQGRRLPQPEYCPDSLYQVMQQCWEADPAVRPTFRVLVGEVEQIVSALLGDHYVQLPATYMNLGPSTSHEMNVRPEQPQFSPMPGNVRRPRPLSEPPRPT
Protocol: as §1

DCAMKL2 = molecular target: T3, DCAMKL2 (Homo sapiens, UniProt Q8N568); assay: Kinome profiling DCAMKL2; conditions: read-out: Inhibitory activity DCAMKL2; for inhibition at 0.1 µM: 100 nM
T3 sequence (Q8N568 1-766): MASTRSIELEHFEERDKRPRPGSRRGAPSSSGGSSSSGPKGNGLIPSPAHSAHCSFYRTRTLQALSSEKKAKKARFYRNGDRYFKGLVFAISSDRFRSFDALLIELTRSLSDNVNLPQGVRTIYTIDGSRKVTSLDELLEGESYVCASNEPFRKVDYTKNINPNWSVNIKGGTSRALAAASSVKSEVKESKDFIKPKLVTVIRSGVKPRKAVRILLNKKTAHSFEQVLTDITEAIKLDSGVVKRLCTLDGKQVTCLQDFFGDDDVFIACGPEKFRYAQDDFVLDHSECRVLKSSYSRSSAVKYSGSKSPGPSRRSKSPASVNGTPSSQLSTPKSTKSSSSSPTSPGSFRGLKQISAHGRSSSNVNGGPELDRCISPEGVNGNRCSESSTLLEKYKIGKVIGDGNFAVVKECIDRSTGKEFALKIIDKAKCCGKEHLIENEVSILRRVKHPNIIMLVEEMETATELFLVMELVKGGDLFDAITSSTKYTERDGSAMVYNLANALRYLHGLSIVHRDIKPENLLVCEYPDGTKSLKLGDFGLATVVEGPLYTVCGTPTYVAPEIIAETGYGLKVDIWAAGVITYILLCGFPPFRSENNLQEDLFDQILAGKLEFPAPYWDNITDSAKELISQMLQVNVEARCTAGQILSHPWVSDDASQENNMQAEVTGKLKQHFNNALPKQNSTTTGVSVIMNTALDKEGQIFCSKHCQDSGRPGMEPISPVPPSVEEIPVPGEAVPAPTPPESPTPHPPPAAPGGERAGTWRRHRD
Protocol: as §1

IRAK4 = molecular target: T4, IRAK4 (Homo sapiens, UniProt Q9NWZ3); assay: Kinome profiling IRAK4; conditions: read-out: Inhibitory activity IRAK4; for inhibition at 0.1 µM: 100 nM
T4 sequence (Q9NWZ3 1-460): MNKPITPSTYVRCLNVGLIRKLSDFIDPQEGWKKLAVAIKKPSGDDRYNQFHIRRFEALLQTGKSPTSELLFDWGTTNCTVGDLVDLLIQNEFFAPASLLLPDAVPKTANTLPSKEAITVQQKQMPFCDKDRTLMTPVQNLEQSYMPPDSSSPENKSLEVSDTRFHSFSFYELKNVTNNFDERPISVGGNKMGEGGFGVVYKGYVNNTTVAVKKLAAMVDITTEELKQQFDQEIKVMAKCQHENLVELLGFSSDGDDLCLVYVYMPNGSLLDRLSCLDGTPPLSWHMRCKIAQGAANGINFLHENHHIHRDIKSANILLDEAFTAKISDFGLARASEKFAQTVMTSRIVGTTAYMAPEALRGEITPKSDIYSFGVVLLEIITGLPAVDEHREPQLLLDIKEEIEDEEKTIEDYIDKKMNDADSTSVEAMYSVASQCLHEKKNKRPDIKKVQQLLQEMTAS
Protocol: as §1

PAK1 = PAK1 (Homo sapiens, UniProt Q13153); assay: Kinome profiling PAK1; conditions: read-out: Inhibitory activity PAK1; for inhibition at 0.1 µM: 100 nM
PAK1, sequence (Q13153 whole entry): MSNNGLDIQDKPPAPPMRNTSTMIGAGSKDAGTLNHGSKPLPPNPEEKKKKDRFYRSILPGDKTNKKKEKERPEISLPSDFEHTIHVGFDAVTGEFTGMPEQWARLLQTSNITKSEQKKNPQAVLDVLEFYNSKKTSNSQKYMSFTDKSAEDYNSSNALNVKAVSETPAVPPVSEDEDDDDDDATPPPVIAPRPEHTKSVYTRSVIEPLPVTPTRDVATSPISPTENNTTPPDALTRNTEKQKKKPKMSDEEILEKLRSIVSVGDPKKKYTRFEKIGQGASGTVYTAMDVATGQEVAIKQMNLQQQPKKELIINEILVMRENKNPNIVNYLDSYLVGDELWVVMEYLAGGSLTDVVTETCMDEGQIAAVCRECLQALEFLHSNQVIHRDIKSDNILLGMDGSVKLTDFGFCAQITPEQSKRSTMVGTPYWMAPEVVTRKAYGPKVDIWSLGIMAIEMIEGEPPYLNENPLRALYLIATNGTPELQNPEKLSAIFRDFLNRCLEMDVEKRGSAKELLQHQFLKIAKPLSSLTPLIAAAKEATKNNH
Protocol: as §1

Row | SMILES | inhibition at 0.1 µM (SGK1) [%] | inhibition at 1 µM (SGK1) [%] | inhibition at 0.1 µM (PKC-γ) [%] | inhibition at 1 µM (PKC-γ) [%] | inhibition at 0.1 µM (PAR-1Bα) [%] | inhibition at 1 µM (PAR-1Bα) [%] | inhibition at 0.1 µM (ALK) [%] | inhibition at 1 µM (ALK) [%] | inhibition at 0.1 µM (ERBB4) [%] | inhibition at 1 µM (ERBB4) [%] | inhibition at 0.1 µM (P38γ) [%] | inhibition at 1 µM (P38γ) [%] | inhibition at 0.1 µM (RON) [%] | inhibition at 1 µM (RON) [%] | inhibition at 0.1 µM (DCAMKL2) [%] | inhibition at 1 µM (DCAMKL2) [%] | inhibition at 0.1 µM (IRAK4) [%] | inhibition at 1 µM (IRAK4) [%] | inhibition at 0.1 µM (PAK1) [%] | inhibition at 1 µM (PAK1) [%]
1 | COc1cc(-c2cc(-c3ccc(N4CCNCC4)cc3)cnc2C)cc(OC)c1OC [Compound 10, 1-(4-(6-methyl-5-(3,4,5-trimethoxyphenyl)pyridin-3-yl)phenyl)piperazine] | 2 | 1 | 3 | 5 | 2 | 4 | 2 | 7 | 4 | 21 | -2 | 1 | 2 | 6 | 1 | 0 | 0 | 1 | 2 | 3
2 | COc1cc(-c2cc(-c3ccc(N4CCNCC4)cc3)cnc2N)cc(OC)c1OC [Compound 15, 5-(4-(piperazin-1-yl)phenyl)-3-(3,4,5-trimethoxyphenyl)pyridin-2-amine] | 3 | 1 | 1 | 4 | 1 | 19 | 6 | 36 | 9 | 29 | 2 | 1 | 3 | 17 | -1 | 3 | 1 | 2 | 0 | 6
